Measured values reported in PubChem BioAssay AID1963843 (Molecular Pharmacology Branch, DTP, NCI, 2024).

Test system: 616215-338-R-J1-PDC complex spheroid viability
Assay: Anticancer human tumor 616215-338-R-J1-PDC patient-derived colon adenocarcinoma cell line growth inhibition [POLQ]
Details: for IC50: curve of first compound; for viability, T/C: stronger effect = lower value; active = viability on the fitted dose curve at most 10% of control; inactive = the rest
How it was run: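 Complex spheroid viability model combining PDC tumour cells with endothelial (HUVEC) and MSC stromal cells. Novobiocin, ART-558 or RP6685 were tested singly and in combination with standard and investigational anticancer drugs. Each was titrated in half-log steps from near clinical Cmax, or from 10 microM where Cmax was unknown.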
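Note: spheroids exposed to compounds for one week before readout.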
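Throughout, for viability, T/C: percent viability relative to DMSO vehicle wells taken as 100%.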

CC(=O)O[C@H]1C(=O)[C@@]2(C)[C@H]([C@H](OC(=O)c3ccccc3)[C@]3(O)C[C@H](OC(=O)[C@H](O)[C@@H](NC(=O)c4ccccc4)c4ccccc4)C(C)=C1C3(C)C)[C@]1(OC(C)=O)CO[C@@H]1C[C@@H]2O + Nc1ccc(C#CCN(C(=O)Cc2ncc(C(F)(F)F)cc2C(F)(F)F)c2ccc(F)cc2)nn1
< 9.49 nM: IC50 (second compound 0.0316 µM) | IC50 (second compound 0.1 µM) | IC50 (second compound 0.316 µM) | IC50 (second compound 1 µM) | IC50 (second compound 3.16 µM) | IC50 (second compound 10 µM)
inactive: viability, T/C (second compound 0.0316 µM, first compound 0.00949 µM) 38.1% | viability, T/C (second compound 0.0316 µM, first compound 0.03 µM) 25.5% | viability, T/C (second compound 0.0316 µM, first compound 0.0949 µM) 22.9% | viability, T/C (second compound 0.0316 µM, first compound 0.3 µM) 18.4% | viability, T/C (second compound 0.0316 µM, first compound 0.949 µM) 16.6% | viability, T/C (second compound 0.0316 µM, first compound 3 µM) 17.7% | viability, T/C (second compound 0.1 µM, first compound 0.00949 µM) 50% | viability, T/C (second compound 0.1 µM, first compound 0.03 µM) 24.6% | viability, T/C (second compound 0.1 µM, first compound 0.0949 µM) 21.3% | viability, T/C (second compound 0.1 µM, first compound 0.3 µM) 17.4% | viability, T/C (second compound 0.1 µM, first compound 0.949 µM) 17.6% | viability, T/C (second compound 0.1 µM, first compound 3 µM) 19% | viability, T/C (second compound 0.316 µM, first compound 0.00949 µM) 42.3% | viability, T/C (second compound 0.316 µM, first compound 0.03 µM) 22.4% | viability, T/C (second compound 0.316 µM, first compound 0.0949 µM) 20.9% | viability, T/C (second compound 0.316 µM, first compound 0.3 µM) 19.1% | viability, T/C (second compound 0.316 µM, first compound 0.949 µM) 16.8% | viability, T/C (second compound 0.316 µM, first compound 3 µM) 14.8% | viability, T/C (second compound 1 µM, first compound 0.00949 µM) 41.1% | viability, T/C (second compound 1 µM, first compound 0.03 µM) 25% | viability, T/C (second compound 1 µM, first compound 0.0949 µM) 24.1% | viability, T/C (second compound 1 µM, first compound 0.3 µM) 26.1% | viability, T/C (second compound 1 µM, first compound 0.949 µM) 14% | viability, T/C (second compound 1 µM, first compound 3 µM) 16.6% | viability, T/C (second compound 3.16 µM, first compound 0.00949 µM) 30.2% | viability, T/C (second compound 3.16 µM, first compound 0.03 µM) 22.1% | viability, T/C (second compound 3.16 µM, first compound 0.0949 µM) 22.4% | viability, T/C (second compound 3.16 µM, first compound 0.3 µM) 20.2% | viability, T/C (second compound 3.16 µM, first compound 0.949 µM) 16.5% | viability, T/C (second compound 3.16 µM, first compound 3 µM) 15.1% | viability, T/C (second compound 10 µM, first compound 0.00949 µM) 36.9% | viability, T/C (second compound 10 µM, first compound 0.03 µM) 25% | viability, T/C (second compound 10 µM, first compound 0.0949 µM) 23.3% | viability, T/C (second compound 10 µM, first compound 0.3 µM) 18.4% | viability, T/C (second compound 10 µM, first compound 0.949 µM) 18.1% | viability, T/C (second compound 10 µM, first compound 3 µM) 21.6%

CC[C@@]1(O)C(=O)OCc2c1cc1n(c2=O)Cc2cc3c(CN(C)C)c(O)ccc3nc2-1 + Nc1ccc(C#CCN(C(=O)Cc2ncc(C(F)(F)F)cc2C(F)(F)F)c2ccc(F)cc2)nn1
59.4 nM: IC50 (second compound 3.16 µM)
inactive: viability, T/C (second compound 0.0316 µM, first compound 0.000316 µM) 112% | viability, T/C (second compound 0.0316 µM, first compound 0.001 µM) 105% | viability, T/C (second compound 0.0316 µM, first compound 0.00316 µM) 100% | viability, T/C (second compound 0.0316 µM, first compound 0.01 µM) 101% | viability, T/C (second compound 0.0316 µM, first compound 0.0316 µM) 89.4% | viability, T/C (second compound 0.0316 µM, first compound 0.1 µM) 32.3% | viability, T/C (second compound 0.1 µM, first compound 0.000316 µM) 103% | viability, T/C (second compound 0.1 µM, first compound 0.001 µM) 103% | viability, T/C (second compound 0.1 µM, first compound 0.00316 µM) 98.1% | viability, T/C (second compound 0.1 µM, first compound 0.01 µM) 102% | viability, T/C (second compound 0.1 µM, first compound 0.0316 µM) 83.4% | viability, T/C (second compound 0.1 µM, first compound 0.1 µM) 37.5% | viability, T/C (second compound 0.316 µM, first compound 0.000316 µM) 111% | viability, T/C (second compound 0.316 µM, first compound 0.001 µM) 119% | viability, T/C (second compound 0.316 µM, first compound 0.00316 µM) 98.6% | viability, T/C (second compound 0.316 µM, first compound 0.01 µM) 99.3% | viability, T/C (second compound 0.316 µM, first compound 0.0316 µM) 79.8% | viability, T/C (second compound 0.316 µM, first compound 0.1 µM) 33.6% | viability, T/C (second compound 1 µM, first compound 0.000316 µM) 108% | viability, T/C (second compound 1 µM, first compound 0.001 µM) 96.6% | viability, T/C (second compound 1 µM, first compound 0.00316 µM) 107% | viability, T/C (second compound 1 µM, first compound 0.01 µM) 104% | viability, T/C (second compound 1 µM, first compound 0.0316 µM) 66.1% | viability, T/C (second compound 1 µM, first compound 0.1 µM) 41.1% | viability, T/C (second compound 3.16 µM, first compound 0.000316 µM) 97.9% | viability, T/C (second compound 3.16 µM, first compound 0.001 µM) 108% | viability, T/C (second compound 3.16 µM, first compound 0.00316 µM) 98.2% | viability, T/C (second compound 3.16 µM, first compound 0.01 µM) 98.3% | viability, T/C (second compound 3.16 µM, first compound 0.0316 µM) 75.3% | viability, T/C (second compound 3.16 µM, first compound 0.1 µM) 29.1% | viability, T/C (second compound 10 µM, first compound 0.000316 µM) 85.5% | viability, T/C (second compound 10 µM, first compound 0.001 µM) 90.1% | viability, T/C (second compound 10 µM, first compound 0.00316 µM) 96.4% | viability, T/C (second compound 10 µM, first compound 0.01 µM) 94.2% | viability, T/C (second compound 10 µM, first compound 0.0316 µM) 55.8% | viability, T/C (second compound 10 µM, first compound 0.1 µM) 38%
66.6 nM: IC50 (second compound 1 µM)
69.9 nM: IC50 (second compound 0.0316 µM)
66.3 nM: IC50 (second compound 0.316 µM)
46.1 nM: IC50 (second compound 10 µM)
73 nM: IC50 (second compound 0.1 µM)
